IC50 data for 54 compounds are collected here from patent US10052330B2, “Substituted pyrido[3,4-b]pyrazines as Syk inhibitors” (HUTCHISON MEDIPHARMA LIMITED, priority 2011, dated 2018).

Like-named read-outs stand apart in the source and are kept apart here.

The target of one test is Syk kinase (Homo sapiens, UniProt P43405). The experiment in a line: Syk kinase enzymatic assay (Kit-Tyr 2 Peptide). In kind it is biochemical. The settings on record: 8 concentrations, 1 μM down to 0.0003 μM; upper bound of each range is 'less than'; read-out: IC50: Enzymatic Activity (Syk kinase).
The next test has as its system RBL-2H3 cells. The test is described as follows: IgE-induced Beta-hexosaminidase secretion in RBL-2H3 cells. In kind it is cell-based. The settings on record: Rattus norvegicus.
Where [1] appears, read: RBL-2H3, RBL-2H3 cells sensitized with SPE-7, stimulated with DNP-BSA, upper bound of each range is 'less than', read-out: IC50, IgE-induced Beta-hexosaminidase secretion.

Regarding `O=C(CO)N1CCC(c2ccc(-c3cc4nccnc4c(NC[C@@H]4CNCCO4)n3)cc2)CC1` [Compound 511], the IC50 at Syk kinase and in the test on RBL-2H3 cells (setting [1]) was 1 to 100 nM throughout.
Consider `c1cnc2c(NC[C@H]3CNCCO3)nc(-c3ccc(N4CCOCC4)nc3)cc2n1` [Compound 97], for which the IC50 at Syk kinase and with RBL-2H3 cells (setting [1]) was 100 to 1000 nM throughout.
On to `CCS(=O)(=O)N1CCN(c2ccc(-c3cc4nccnc4c(NC[C@@H]4CNCCO4)n3)cc2F)CC1` [Compound 287], for which the IC50 at Syk kinase and in the test on RBL-2H3 cells (setting [1]) was 1 to 100 nM each time.
Turning to `CC(C)Oc1ccc(-c2cc3nccnc3c(NCC3CCCNC3)n2)cc1F` (centres unmarked) [Compound 52], the IC50 on Syk kinase was in the range of 1 to 100 nM; with RBL-2H3 cells (setting [1]), 100 to 1000 nM.
As for `FC1(CNc2nc(-c3ccc(N4CCOCC4)cc3)cc3nccnc23)CCCNC1` (centres unmarked) [Compound 251], the IC50 at Syk kinase and in the test on RBL-2H3 cells (setting [1]) was 1 to 100 nM each time.
On to `c1cnc2c(NCCc3c[nH]cn3)nc(-c3ccc(N4CCOCC4)cc3)cc2n1` [Compound 172], for which the IC50 at Syk kinase and in the test on RBL-2H3 cells (setting [1]) was 100 to 1000 nM each time.
For `CCS(=O)(=O)N1CCN(c2ccc(-c3cc4nccnc4c(NCC4CNCCC4(F)F)n3)cc2)CC1` (centres unmarked) [Compound 445], the IC50 on Syk kinase and with RBL-2H3 cells (setting [1]) was 1 to 100 nM in each case.
With `CC1CN(c2ccc(-c3cc4nccnc4c(NCC4CNCCC4(F)F)n3)cc2)CCO1` (single isomer, unassigned) [Compound 308], the concentration for half-maximal inhibition (IC50) at Syk kinase and with RBL-2H3 cells (setting [1]) was 1 to 100 nM throughout.
As for `CC(C)(F)C(=O)N1CCN(c2ccc(-c3cc4nccnc4c(NC[C@@H]4CNCCO4)n3)cc2)CC1` [Compound 437], the IC50 at Syk kinase and in the test on RBL-2H3 cells (setting [1]) was 1 to 100 nM throughout.
`CCN1CCC(c2ccc(-c3cc4nccnc4c(NC[C@@H]4CN(S(C)(=O)=O)CCO4)n3)cc2)CC1` [Compound 479, (R)-7-(4-(1-ethylpiperidin-4-yl)phenyl)-N-((4-(methylsulfonyl)morpholin-2-yl)methyl)pyrido[4,3-b]pyrazin-5-amine]: the IC50 lay in the range of 1 to 100 nM on Syk kinase and 1 to 100 nM with RBL-2H3 cells (RBL-2H3 cells sensitized with SPE-7, stimulated with DNP-BSA, upper bound of each range is 'less than', read-out: IC50, IgE-induced Beta-hexosaminidase secretion).
For `Fc1cc(-c2cc3nccnc3c(NCC3CNCCS3)n2)ccc1N1CCOCC1` (centres unmarked) [Compound 240], the half-inhibitory concentration (IC50) at Syk kinase and in the test on RBL-2H3 cells (setting [1]) was 1 to 100 nM throughout.
`CNc1ccc(-c2cc3nccnc3c(NCC3CNCCC3(F)F)n2)cc1F` (centres unmarked) [Compound 300]: the IC50 at Syk kinase and in the test with RBL-2H3 cells (setting [1]) was 1 to 100 nM each time.
Consider `CN1CCN(c2ccc(-c3cc4nccnc4c(NC[C@@H]4CNCCC4(F)F)n3)cc2)CC1` [Compound 372, (S)—N-((4,4-difluoropiperidin-3-yl)methyl)-7-(4-(4-methylpiperazin-1-yl)phenyl)pyrido[4,3-b]pyrazin-5-amine], for which the values for the 50% inhibitory concentration (IC50) at Syk kinase and with RBL-2H3 cells (setting [1]) were 1 to 100 nM and 100 to 1000 nM, respectively.
For `FC(F)CNc1nc(-c2ccc(N3CCOCC3)cc2)cc2nccnc12` [Compound 197], in the test with RBL-2H3 cells (setting [1]), the 50% inhibitory concentration (IC50) lay in the range of 100 to 1000 nM.
On to `O=C(C1CCC1)N1CCN(c2ccc(-c3cc4nccnc4c(NC[C@@H]4CNCCO4)n3)cc2)CC1` [Compound 413], for which the half-inhibitory concentration (IC50) on Syk kinase and in the test with RBL-2H3 cells (setting [1]) was 1 to 100 nM in each case.
On to `CC(C)(O)C(=O)N1CCN(c2ccc(-c3cc4nccnc4c(NC[C@@H]4CNCCO4)n3)cc2)CC1` [Compound 412], for which the half-inhibitory concentration (IC50) at Syk kinase was 1 to 100 nM; with RBL-2H3 cells (setting [1]) it was 100 to 1000 nM.
In the case of `CNc1ccc(-c2cc3nccnc3c(NCC3CNCCC3(F)F)n2)cn1` (centres unmarked) [Compound 302], the IC50 at Syk kinase and with RBL-2H3 cells (setting [1]) was 1 to 100 nM each time.
As to `Cn1cc(-c2cc3nccnc3c(NCC3CCCNC3)n2)cn1` (centres unmarked) [Compound 18], the IC50 was in the range of 100 to 1000 nM on Syk kinase and 100 to 1000 nM in the test with RBL-2H3 cells (RBL-2H3, read-out: IC50, IgE-induced Beta-hexosaminidase secretion).
On to `CCn1cc(-c2cc3nccnc3c(NC[C@H]3CNCCC3(F)F)n2)cn1` [Compound 393, (R)—N-((4,4-difluoropiperidin-3-yl)methyl)-7-(1-ethyl-1H-pyrazol-4-yl)pyrido[4,3-b]pyrazin-5-amine], for which the values for the 50% inhibitory concentration (IC50) on Syk kinase and with RBL-2H3 cells (setting [1]) were 100 to 1000 nM and 1 to 100 nM, respectively.
With `NC(=O)N1CCC(c2ccc(-c3cc4nccnc4c(NC[C@@H]4CNCCO4)n3)cc2)CC1` [Compound 506], the IC50 was in the range of 1 to 100 nM at Syk kinase and 100 to 1000 nM in the test on RBL-2H3 cells (setting [1]).
For `CN(C)c1cccc(-c2cc3nccnc3c(NCC3CCCNC3)n2)c1` (centres unmarked) [Compound 13], in that order: 100 to 1000 nM and 100 to 1000 nM.
For `CN1CCN(c2ccc(-c3cc4nccnc4c(NCC4CN(S(C)(=O)=O)CCO4)n3)cc2)CC1` (stereo in doubt) [Compound 486, (S)-7-(4-(4-methylpiperazin-1-yl)phenyl)-N-((4-(methylsulfonyl)morpholin-2-yl)methyl)pyrido[4,3-b]pyrazin-5-amine], the half-maximal inhibitory concentration (IC50) on Syk kinase and with RBL-2H3 cells (setting [1]) was 1 to 100 nM throughout.
In the case of `N#CCCNc1nc(-c2ccc(N3CCOCC3)cc2)cc2nccnc12` [Compound 187], the 50% inhibitory concentration (IC50) in the test on RBL-2H3 cells (setting [1]) was 100 to 1000 nM.
With `CN(C)c1ccc(-c2cc3nccnc3c(NC[C@@H]3CNCCO3)n2)cc1C#N` [Compound 474], the IC50 on Syk kinase and with RBL-2H3 cells (setting [1]) was 1 to 100 nM each time.
Regarding `N#CCCC(=O)N1CCN(c2ccc(-c3cc4nccnc4c(NC[C@@H]4CNCCO4)n3)cc2)CC1` [Compound 434], the IC50 lay in the range of 1 to 100 nM on Syk kinase and 100 to 1000 nM in the test on RBL-2H3 cells (setting [1]).
In the case of `FC(F)(F)C1CCC(CNc2nc(-c3ccc(N4CCOCC4)cc3)cc3nccnc23)CN1` (centres unmarked) [Compound 199], the 50% inhibitory concentration (IC50) in the test with RBL-2H3 cells (setting [1]) fell in the range of 100 to 1000 nM.
Same read-out and setting: the same measure for `OCC1(CNc2nc(-c3ccc(N4CCOCC4)cc3)cc3nccnc23)COC1` [Compound 171]: 100 to 1000 nM.
As for `CS(=O)(=O)c1ccc(-c2cc3nccnc3c(NC[C@@H]3CNCCO3)n2)cc1` [Compound 211], the IC50 at Syk kinase was 100 to 1000 nM.
As for `CN(C)c1ccc(-c2cc3nccnc3c(NCC3CCCNC3)n2)cn1` (centres unmarked) [Compound 59], the half-maximal inhibitory concentration (IC50) at Syk kinase was in the range of 1 to 100 nM.
Regarding `CN1CC2CN(c3ccc(-c4cc5nccnc5c(NC[C@@H]5CNCCO5)n4)cn3)CC2C1` (some centres unmarked) [Compound 256], the half-maximal inhibitory concentration (IC50) on Syk kinase lay in the range of 100 to 1000 nM.
`CC(C)(O)[C@@H]1CCN(c2nc(-c3ccc(N4CCOCC4)cc3)cc3nccnc23)C1` [Compound 170]: the concentration for half-maximal inhibition (IC50) in the test with RBL-2H3 cells (setting [1]) lay in the range of 100 to 1000 nM.
On to `c1cnc2c(NCC3CCCNC3)nc(-c3ccoc3)cc2n1` (centres unmarked) [Compound 31], for which, on Syk kinase, the half-inhibitory concentration (IC50) was in the range of 100 to 1000 nM.
Still for that read-out and setting: for `CC(Nc1nc(-c2ccc(N3CCOCC3)nc2)cc2nccnc12)C1CNCCO1` (centres unmarked) [Compound 277] the value was 100 to 1000 nM.
`CS(=O)(=O)N1CCC(c2ccc(-c3cc4nccnc4c(NC[C@@H]4CN(O)CCO4)n3)cc2)CC1` [Compound 496, (R)-2-((7-(4-(1-(methylsulfonyl)piperidin-4-yl)phenyl)pyrido[4,3-b]pyrazin-5-ylamino)methyl)morpholin-4-ol]: the half-maximal inhibitory concentration (IC50) on Syk kinase was 100 to 1000 nM.
For the compound `c1cn(-c2ccc(-c3cc4nccnc4c(NC[C@@H]4CNCCO4)n3)cc2)cn1` [Compound 248], at Syk kinase, the IC50 is 100 to 1000 nM.
For `FC1(F)CNCC(CNc2nc(-c3ccc(N4CCOCC4)nc3)cc3nccnc23)C1` (centres unmarked) [Compound 206], the IC50 at Syk kinase fell in the range of 100 to 1000 nM.
On to `CC(C)C(=O)N1CCO[C@H](CNc2nc(-c3ccc(N4CCOCC4)cc3)cc3nccnc23)C1` [Compound 328], for which the IC50 on Syk kinase is 100 to 1000 nM.
In the case of `FC1(F)CNCC(CNc2nc(-c3ccc(N4CCOCC4)c(Cl)c3)cc3nccnc23)C1` (centres unmarked) [Compound 203], the IC50 at Syk kinase is 100 to 1000 nM.
Consider `O=C1COCCN1c1ccc(-c2cc3nccnc3c(NC[C@@H]3CNCCO3)n2)cc1` [Compound 242], for which the IC50 at Syk kinase was in the range of 100 to 1000 nM.
On to `CC(=O)N1CCO[C@H](CNc2nc(-c3ccc(N4CCOCC4)cc3)cc3nccnc23)C1` [Compound 326], for which the concentration for half-maximal inhibition (IC50) at Syk kinase lay within 100 to 1000 nM.
Take `O=C(CC(F)(F)F)N1CCO[C@H](CNc2nc(-c3ccc(N4CCOCC4)cc3)cc3nccnc23)C1` [Compound 343]: the IC50 on Syk kinase lay in the range of 100 to 1000 nM.
As to `CCN(CC)c1ccc(-c2cc3nccnc3c(NC[C@@H]3CN(C(=O)C(F)F)CCO3)n2)cc1` [Compound 471], the half-maximal inhibitory concentration (IC50) on Syk kinase was 100 to 1000 nM.
On to `CC(F)(F)C(=O)N1CCO[C@H](CNc2nc(-c3ccc(N4CCOCC4)cc3)cc3nccnc23)C1` [Compound 342], for which the 50% inhibitory concentration (IC50) at Syk kinase lay in the range of 100 to 1000 nM.
As to `NC(=O)CCC(=O)N1CCN(c2ccc(-c3cc4nccnc4c(NCC4CNCCO4)n3)cc2)CC1` (centres unmarked) [Compound 422], on Syk kinase, the half-maximal inhibitory concentration (IC50) was in the range of 1 to 100 nM.
For the compound `CS(=O)(=O)Nc1ccc(-c2cc3nccnc3c(NCC3CCCNC3)n2)cc1` (centres unmarked) [Compound 53], the IC50 at Syk kinase was in the range of 1 to 100 nM.
For `CC[N+]1(CC)CCC(c2ccc(-c3cc4nccnc4c(NC[C@@H]4CN(C(=O)C(F)F)CCO4)n3)cc2)CC1` [Compound 480, (R)-4-(4-(5-((4-(2,2-difluoroacetyl)morpholin-2-yl)methylamino)pyrido[4,3-b]pyrazin-7-yl)phenyl)-1,1-diethylpiperidinium iodide], the concentration for half-maximal inhibition (IC50) at Syk kinase lay in the range of 1 to 100 nM.
On the same count and under the same terms, for `c1cnc2c(N3CC4CCNC4C3)nc(-c3ccc(N4CCOCC4)cc3)cc2n1` (centres unmarked) [Compound 145, 4-(4-(5-(hexahydropyrrolo[3,4-b]pyrrol-5(1H)-yl)pyrido[4,3-b]pyrazin-7-yl)phenyl)morpholine] the value was 100 to 1000 nM; for `CN(C)Cc1ccc(-c2cc3nccnc3c(NCC3CCCNC3)n2)cc1` (centres unmarked) [Compound 64], 1 to 100 nM; for `CN1CCN(c2ccc(-c3cc4nccnc4c(NCC4(F)CCCNC4)n3)cc2)CC1` (single isomer, unassigned) [Compound 380], 1 to 100 nM.
In the case of `CCN(CC1CCCNC1)c1nc(-c2ccc(N3CCOCC3)cc2)cc2nccnc12` (centres unmarked) [Compound 154], the IC50 at Syk kinase was in the range of 100 to 1000 nM.
On the same count and under the same terms, the same measure for `COc1ccc(-c2cc3nccnc3c(NCC3CNCCC3(F)F)n2)cn1` (centres unmarked) [Compound 299]: 100 to 1000 nM; for `NC(=O)N1CCO[C@H](CNc2nc(-c3ccc(N4CCOCC4)c(F)c3)cc3nccnc23)C1` [Compound 348]: 100 to 1000 nM; for `FC1(CNc2nc(-c3ccc(N4CCOCC4)nc3)cc3nccnc23)CCCNC1` (centres unmarked) [Compound 252]: 100 to 1000 nM.
Turning to `Nc1ccc(-c2cc3nccnc3c(NCC3CCCNC3)n2)cn1` (centres unmarked) [Compound 57], on Syk kinase, the half-maximal inhibitory concentration (IC50) lay in the range of 100 to 1000 nM.
